≈ marks a conversion by molar mass, not a printed value. Where “and” joins values, the source holds several entries; their conditions need not be identical. Equal entries are not always repeated.
What was measured:
Assay in all cases: ≥ marks a high value that may be exact or a test limit, other limits are often not marked, values filed in µg/mL are converted to µM
[1] = test system: Bacillus subtilis ATCC 6633
[2] = test system: Candida albicans ATCC 20032
[3] = test system: Escherichia coli ATCC 25922
[4] = test system: Staphylococcus aureus ATCC 25923
[5] = test system: Bacillus subtilis CMCC 63501
Escherichia coli UB1005 = test system: Escherichia coli UB1005
[6] = test system: Pseudomonas aeruginosa ATCC 27853
[7] = test system: Salmonella enterica subsp. enterica serovar Pullorum C79-13
[8] = test system: Salmonella typhimurium ATCC 7731
[9] = test system: Staphylococcus aureus ATCC 29213
[10] = test system: Staphylococcus aureus ATCC 43300
[11] = test system: Staphylococcus epidermidis ATCC 12228
[12] = test system: Salmonella enterica subsp. enterica serovar Typhimurium ATCC 14028

MIC [1] [µM] | MIC [2] [µM] | MIC [3] | MIC [4] [µM] | MIC [5] [µM] | MIC (Escherichia coli UB1005) [µM] | MIC [6] | MIC [7] [µM] | MIC [8] [µM] | MIC [9] [µM] | MIC [10] [µM] | MIC [11] [µM] | MIC [12] [µM] | Compound
14.4 (≈ 37.5 µg/mL) | 14.4 (≈ 37.5 µg/mL) | > 38.3 µM | 1.8 (≈ 4.7 µg/mL) | – | – | – | – | – | – | – | – | – | CC[C@H](C)[C@H](NC(=O)CN)C(=O)NCC(=O)NCC(=O)N[C@@H](C)C(=O)N[C@@H](CC(C)C)C(=O)N[C@@H](CC(C)C)C(=O)N[C@@H](CO)C(=O)N[C@H](C(=O)NCC(=O)N[C@@H](CCCCN)C(=O)N[C@@H](CC(C)C)C(=O)N[C@@H](C)C(=O)N[C@@H](CC(C)C)C(=O)N[C@@H](CCCCN)C(=O)NCC(=O)N[C@@H](CC(C)C)C(=O)N[C@@H](C)C(=O)N[C@@H](CC(N)=O)C(=O)N[C@H](C(=O)N[C@@H](CC(C)C)C(=O)N[C@@H](C)C(=O)N[C@@H](CC(=O)O)C(=O)N[C@@H](CCCCN)C(=O)N[C@@H](Cc1ccccc1)C(=O)N[C@@H](C)C(=O)N[C@@H](CC(N)=O)C(N)=O)C(C)C)C(C)C [GIGGALLSVGKLALKGLANVLADKFAN]
29.8 (≈ 135 µg/mL) | ≥ 44.2 | 35.3 µM (≈ 160 µg/mL) | 14.4 (≈ 64.9 µg/mL) | – | – | – | – | – | – | – | – | – | CC(C)C[C@@H]1NC(=O)[C@H](CO)NC(=O)[C@H](Cc2ccc(O)cc2)NC(=O)[C@H](CCC(=O)O)NC(=O)[C@H](Cc2ccccc2)NC(=O)[C@H](C)NC(=O)[C@H](Cc2ccccc2)NC(=O)[C@@H]2CSSC[C@@H](C(=O)N[C@H](C(=O)N3CCC[C@H]3C(=O)N[C@@H](CC(N)=O)C(=O)N[C@H](C(=O)N[C@@H](Cc3ccccc3)C(=O)O)[C@@H](C)O)C(C)C)NC(=O)[C@@H]3CSSC[C@H](NC(=O)CNC(=O)[C@H](Cc4c[nH]c5ccccc45)NC(=O)[C@@H](NC(=O)[C@H](C)NC(=O)[C@@H](N)Cc4ccccc4)C(C)C)C(=O)N[C@@H](C)C(=O)N[C@@H](CC(=O)O)C(=O)N[C@@H](Cc4ccc(O)cc4)C(=O)N[C@@H](CCCN=C(N)N)C(=O)NCC(=O)N[C@@H](Cc4ccc(O)cc4)C(=O)N[C@@H](CSSC[C@H](NC(=O)CNC(=O)[C@H](CCCCN)NC(=O)[C@@H]4CCCN4C(=O)CNC1=O)C(=O)N[C@@H]([C@@H](C)O)C(=O)N[C@@H](CCC(=O)O)C(=O)NCC(=O)N[C@@H](Cc1ccc(O)cc1)C(=O)N[C@@H](C(C)C)C(=O)N3)C(=O)N[C@@H](CCCN=C(N)N)C(=O)N[C@@H](C)C(=O)N[C@@H](C)C(=O)N2 [FAVWGCADYRGYCRAACFAFEYSLGPKGCTEGYVCCVPNTF]
– | – | > 128 µM | – | ≥ 128 | ≥ 128 | > 128 µM | ≥ 128 | ≥ 128 | > 128 | > 128 | > 128 | – | CC(C)C[C@H](NC(=O)[C@H](CCCCN)NC(=O)[C@H](CCCCN)NC(=O)[C@H](C)NC(=O)[C@@H](NC(=O)[C@H](CCCCN)NC(=O)[C@H](CO)NC(=O)[C@H](CC(C)C)NC(=O)[C@@H](N)Cc1c[nH]c2ccccc12)[C@@H](C)O)C(N)=O [WLSKTAKKL]
– | – | 2 µM and 4 µM | – | 2 (≈ 6.19 µg/mL) | 4 (≈ 12.4 µg/mL) | 4 µM and > 2 µM | – | 4 (≈ 12.4 µg/mL) | 4 (≈ 12.4 µg/mL) | – | 2 (≈ 6.19 µg/mL) | 4 (≈ 12.4 µg/mL) | CC[C@H](C)[C@H](NC(=O)CNC(=O)[C@H](C)NC(=O)[C@H](C)NC(=O)[C@@H](NC(=O)[C@@H](NC(=O)[C@H](CC(N)=O)NC(=O)[C@@H](NC(=O)[C@H](C)NC(=O)[C@@H](NC(=O)[C@@H]1CCCN1C(=O)[C@@H](NC(=O)[C@H](CC(C)C)NC(=O)[C@@H]1CCCN1C(=O)[C@H](Cc1c[nH]c2ccccc12)NC(=O)[C@H](Cc1ccccc1)NC(=O)[C@H](CCCN=C(N)N)NC(=O)[C@@H](N)CCCCN)C(C)C)C(C)C)[C@@H](C)CC)[C@@H](C)O)C(C)C)C(=O)N[C@@H](CC(N)=O)C(=O)N[C@@H](CC(C)C)C(=O)N[C@@H](Cc1ccc(O)cc1)C(=O)N[C@@H](CCCCN)C(=O)N[C@@H](C)C(=O)N[C@H](C(=O)N[C@@H](CCCN=C(N)N)C(=O)N[C@@H](CCCN=C(N)N)C(=O)N[C@@H](CCCCN)C(N)=O)[C@@H](C)CC [KRFWPLVPVAINTVAAGINLYKAIRRK]
